# Measurements: paper PMC5458211, “Mitochondrial VDAC1-based peptides: Attacking oncogenic properties in glioblastoma” (Oncotarget, 2017)
# Non-standard residues stand in square brackets, D forms with d. Residues, ends and D or L forms follow the SMILES beside them.
# System: Ki-67
# Assay: Ki-67 immunohistochemistry of xenograft tumors
# Assay type: in vivo, human U-87MG in nude mice
# Conditions: s.c. U-87MG tumors, 20 μM intra-tumoral, n=5
# Description: Figure 3 VDAC1-based peptides inhibit tumor growth, cell proliferation, and invasion in a glioblastoma xenograft mice model A. Graphical representation of the xenograft experiment protocol used. U-87MG cells (3×10^6/mouse) were inoculated into male nude mice as described in Materials and Methods available online in Supplemental information. B, C. […] The calculated average tumor volumes are presented as means ± SE (n=5) (* p≤0.05, ** p≤0.01). C. The volume of peptide-treated tumors is presented as % of control for each indicated time. Results = mean ± SE (n=5) (* p≤0.05, ** […]). […] E. Quantitative analysis of Ki-67 positive cells. Results = mean ± SE (n=5) (*** p<0.001). […]
# 100% DMSO and then diluted 20-fold with sterile DDW into three groups (6 animals/group) and treated every to reach a concentration of 25 mg/ml in a final DMSO third day with DMSO (1.44%), Retro-Tf-D-LP4 (10 concentration of 5%. PLGA (50 mg) was dissolved in mg/kg) or Retro-Tf-D-LP4 (10 mg/kg) encapsulated by acetone (1 ml). […] Tumor volume was analyzed using VivoQuant 2.10 10 ml of aqueous solution containing 1% PVA (w/v). […]
# (Calbiochem, UK). […] Band intensities were analyzed xenografts were injected 20 µl per tumor (2 points) every by densitometry using Multi Gauge software (Fujifilm) […]
row,SMILES,decrease in Ki-67-positive cell numbers
1,CC[C@H](C)[C@H](NC(=O)[C@H](C)NC(=O)[C@@H](N)Cc1c[nH]cn1)C(=O)N[C@@H](Cc1ccc(O)cc1)C(=O)N1CCC[C@H]1C(=O)N[C@@H](CCCNC(=N)N)C(=O)N[C@@H](Cc1c[nH]cn1)C(=O)N[C@@H](CO)C(=O)N[C@@H](Cc1c[nH]c2ccccc12)C(=O)N[C@H](C(=O)N[C@@H](Cc1c[nH]c2ccccc12)C(=O)N[C@@H](CCC(=O)O)C(=O)N[C@H](CCCCN)C(=O)N[C@H](CCCCN)C(=O)N[C@H](CC(C)C)C(=O)N[C@H](CCC(=O)O)C(=O)N[C@@H](C(=O)N[C@H](C)C(=O)N[C@@H](C(=O)N[C@H](CC(N)=O)C(=O)N[C@H](CC(C)C)C(=O)N[C@H](C)C(=O)N[C@H](Cc1c[nH]c2ccccc12)C(=O)N[C@@H](C(=O)N[C@H](C)C(=O)NCC(=O)N[C@H](CC(N)=O)C(=O)N[C@H](CO)C(=O)N[C@H](CC(N)=O)C(=O)N[C@@H](CCCCN)C(=O)N[C@@H](Cc1c[nH]c2ccccc12)C(=O)N[C@H](C(=O)N[C@@H](Cc1c[nH]c2ccccc12)C(=O)N[C@@H](CCCCN)C(=O)O)[C@@H](C)O)[C@H](C)O)C(C)C)[C@H](C)O)[C@@H](C)O [Tf-D-LP4],about 45%
2,CC[C@@H](C)[C@@H](NC(=O)[C@@H](CCCCN)NC(=O)[C@H](NC(=O)[C@@H](CCC(N)=O)NC(=O)[C@@H](CCCNC(=N)N)NC(=O)[C@@H](CC(C)C)NC(=O)CNC(=O)[C@@H](Cc1ccccc1)NC(=O)CNC(=O)[C@@H](Cc1ccc(O)cc1)NC(=O)CNC(=O)[C@@H](CCCCN)NC(=O)[C@H](NC(=O)[C@@H](Cc1ccccc1)NC(=O)[C@H](NC(=O)[C@@H](CC(=O)O)NC(=O)[C@H](N)CCCNC(=N)N)C(C)C)[C@H](C)O)[C@H](C)CC)C(=O)N[C@H](Cc1c[nH]c2ccccc12)C(=O)N[C@H](Cc1ccccc1)C(=O)N[C@H](CCC(N)=O)C(=O)N[C@H](CC(N)=O)C(=O)N[C@H](CCCNC(=N)N)C(=O)N[C@H](CCCNC(=N)N)C(=O)N[C@H](CCSC)C(=O)N[C@H](CCCCN)C(=O)N[C@H](Cc1c[nH]c2ccccc12)C(=O)N[C@H](CCCCN)C(=O)N[C@H](CCCCN)C(=O)O [D-ΔN-Ter-Antp] (H-[dR][dD][dV][dF][dT][dK]G[dY]G[dF]G[dL][dR][dQ][dI][dK][dI][dW][dF][dQ][dN][dR][dR][dM][dK][dW][dK][dK]-OH; N-terminus and C-terminus assumed),about 45%
